Laboratory results reported in patent US20210238162A1, “CHEMICAL COMPOUNDS” (GlaxoSmithKline Intellectual Property Development Limited, priority 2015, published 2021).
Where a name gives a salt, the structure may show the parent alone.

Target: T1, haematopoietic prostaglandin D synthase (H-PGDS) (Homo sapiens, UniProt O60760)
T1 construct: Full length human H-PGDS cDNA (Invitrogen Ultimate ORF IOH13026) was amplified by PCR; made in house; host or cells: E. coli BL21 (DE3*), vector pET22b+
Experiment: H-PGDS RapidFire High Throughput Mass Spectrometry Assay
Type: biochemical
Settings: H-PGDS RapidFire MS assay, mean pIC50; read-out: Potency Range (mean pIC50) (converted)
Procedure: The H-PGDS RapidFire™ mass spectrometric assay monitors conversion of prostaglandin H2 (PGH2) to prostaglandin D2 (PGD2) by haematopoietic prostaglandin D synthase (H-PGDS). In the assay format described here, the substrate (PGH2) is formed in situ by the action of cyclooxygenase-2 on arachidonic acid. This first step is set up to be fast, and generates a burst of PGH2 at ˜10 μM. The PGH2 is then further converted to PGD2 by the H-PGDS enzyme. […] Plates are then read on the RapidFire™ high throughput solid phase extraction system (Agilent) which incorporates a solid phase extraction step coupled to a triple quadrupole mass spectrometer (AB SCIEX). Relative levels of PGD2 and PGF2α, which acts as a surrogate for substrate, are measured and a percent conversion calculated.
Full length human H-PGDS cDNA (Invitrogen Ultimate ORF IOH13026) was amplified by PCR with the addition of a 5′ 6-His tag and TEV protease cleavage site. The PCR product was digested with Ndel and Xhol and ligated into pET22b+ (Merck Novagen®). Expression was carried out in E. coli strain BL21 (DE3*) using auto-induction Overnight Express™ Instant TB medium (Merck Novagen®) supplemented with 1% glycerol. The culture was first grown at 37° C. and the temperature was reduced to 25° C. when OD600 reached 2.0. Cells were harvested by centrifugation after a further 18 hr. 10 g of E. coli cell pellet was suspended to a total volume of 80 mL in lysis buffer (20 mM Tris-Cl pH 7.5, 300 mM NaCl, 20 mM imidazole, 5 mM β-mercaptoethanol, 10% glycerol). 1 mg/mL protease inhibitors (Protease Inhibitor Cocktail Set Ill, Merck Calbiochem®) and 1 mg/mL lysozyme were added to the cell suspension. The suspension was then sonicated for 5 min (UltraSonic Processor VCX 750, Cole-Parmer Instrument Co.) with a micro probe (50% amplitude, 10 sec on/off) and then centrifuged at 100,000 g for 90 min (at 4° C.). The supernatant was loaded onto a Ni-NTA HiTrap column (5 mL, GE Heathcare, pre-equilibrated in lysis buffer). The column was washed with 10 column volumes of lysis buffer and eluted with lysis buffer containing 500 mM imidazole. The pooled protein peak fractions were concentrated using a 10 kDa centrifugal filter at 3500 g and 4° C. (Amicon Ultra-15 centrifugal filter unit with Ultracel-10 membrane from Millipore). Further purification of the concentrated protein was carried out using gel filtration chromatography on a HiLoad 26/600 Superdex 75 preparative grade column (GE Healthcare Life Sciences) using 50 mM Tris pH 7.5, 50 mM NaCl, 1 mM dithiothreitol, 1 mM MgCl2. Fractions containing the protein were pooled, concentrated as described above, and stored at −80° C.
The full length human COX-2 gene (accession number L15326) was amplified by PCR to generate an EcoRI-HindIII fragment containing an in-frame FLAG tag. This was subcloned into pFastBac 1 (Invitrogen). The COX2 FLAG plasmid was recombined into the baculovirus genome according to the BAC-to-BAC protocol described by Invitrogen. Transfection into Spodoptera frugiperda (Sf9) insect cells was performed using Cellfectin (Invitrogen), according to the manufacturer's protocol. […] Recombinant virus was added at a Multiplicity of Infection (MOI) of 5 and the culture was allowed to continue for 3 days. Cells were harvested using a continuous feed centrifuge run at 2500 g at a rate of approximately 2 L/min with cooling. The resultant cell slurry was re-centrifuged in pots (2500 g, 20 min, 4° C.) and the cell paste was stored at −80° C. […] The suspension was sonicated in 500 mL batches for 8×5 seconds at 10 u amplitude with the medium tip of an MSE probe sonicator and subsequently incubated at 4° C. for 90 min with gentle stirring. The lysate was centrifuged at 12000 rpm for 45 min at 4° C. in a Sorvall SLA1500 rotor. The supernatant (1400 mL) was added to 420 mL of 20 mM Tris-Cl pH 7.4, 150 mM NaCl, 0.1 mM EDTA to reduce the concentration of n-octyl-β-D-glucopyranoside to 1% w/v.

T1 sequence (O60760 whole entry): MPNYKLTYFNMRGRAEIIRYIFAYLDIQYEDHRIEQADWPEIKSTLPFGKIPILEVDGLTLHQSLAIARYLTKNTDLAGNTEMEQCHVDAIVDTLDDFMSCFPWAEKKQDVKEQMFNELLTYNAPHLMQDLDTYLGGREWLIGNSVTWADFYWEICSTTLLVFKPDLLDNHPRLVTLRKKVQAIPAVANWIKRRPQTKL

**Q.** Which IC50 does the source give for `CC(C)(O)[C@H]1CC[C@H](NC(=O)c2cnc3cc(OC(F)F)c(F)cc3c2)CC1` [Example 51, 7-(Difluoromethoxy)-6-fluoro-N-(trans-4-(2-hydroxypropan-2-yl)cyclohexyl)quinoline-3-carboxamide] here?
**A.** 10 to 79.4 nM

**Q.** With `O=C(N[C@H]1CCC[C@H]1O)c1cnc2cc(OC(F)F)c(F)cc2c1` [Example 52, 7-(Difluoromethoxy)-6-fluoro-N-((1S,2R)-2-hydroxycyclopentyl)quinoline-3-carboxamide] as the molecule, how does the IC50 read?
**A.** 100 to 1000 nM

**Q.** `O=C(N[C@H]1CCN(CC2CC2)C1=O)c1cnc2cc(OC(F)F)c(F)cc2c1` [Example 53, (S)—N-(1-(Cyclopropylmethyl)-2-oxopyrrolidin-3-yl)-7-(difluoromethoxy)-6-fluoroquinoline-3-carboxamide] was tested. Which IC50 did it give?
**A.** 10 to 79.4 nM

**Q.** `O=C1CC(NC(=O)c2cnc3cc(OC(F)F)c(F)cc3c2)c2ccccc2N1` (stereo not shown) [Example 54, 7-(Difluoromethoxy)-6-fluoro-N-(2-oxo-1,2,3,4-tetrahydroquinolin-4-yl)quinoline-3-carboxamide] was tested. Which IC50 did it give?
**A.** 10 to 79.4 nM

**Q.** For `CO[C@H]1CC[C@H](NC(=O)c2cnc3cc(OC(F)F)c(F)cc3c2)CC1` [Example 55, 7-(Difluoromethoxy)-6-fluoro-N-(trans-4-methoxycyclohexyl)quinoline-3-carboxamide], which IC50 is on record?
**A.** 10 to 79.4 nM

**Q.** For `CS(=O)(=O)N[C@H]1CC[C@H](NC(=O)c2cnc3cc(OC(F)F)c(F)cc3c2)CC1` [Example 56, 7-(Difluoromethoxy)-6-fluoro-N-(trans-4-(methylsulfonamido)cyclohexyl)quinoline-3-carboxamide], which IC50 is on record?
**A.** 10 to 79.4 nM

**Q.** How did the IC50 turn out when `CC(N[C@H]1CC[C@H](NC(=O)c2cnc3cc(OC(F)F)c(F)cc3c2)CC1)C(F)(F)F` (stereo partly drawn) [Example 57, 7-(Difluoromethoxy)-6-fluoro-N-(trans-4-((1,1,1-trifluoropropan-2-yl)amino)cyclohexyl)quinoline-3-carboxamide] was run?
**A.** 10 to 79.4 nM

**Q.** `O=C(NC1CCN(CC(F)(F)F)CC1)c1cnc2cc(OC(F)F)c(F)cc2c1` [Example 58, 7-(Difluoromethoxy)-6-fluoro-N-(1-(2,2,2-trifluoroethyl)piperidin-4-yl)quinoline-3-carboxamide] was tested. Which IC50 did it give?
**A.** 10 to 79.4 nM

**Q.** With `O=C(N[C@H]1C[C@H](NCC(F)(F)F)C1)c1cnc2cc(OC(F)F)c(F)cc2c1` [Example 59, 7-(Difluoromethoxy)-6-fluoro-N-(trans-3-((2,2,2-trifluoroethyl)amino)cyclobutyl)quinoline-3-carboxamide] as the molecule, how does the IC50 read?
**A.** 10 to 79.4 nM

**Q.** How did the IC50 turn out when `CC(C)(O)CO[C@H]1CC[C@H](NC(=O)c2cnc3cc(OC(F)F)c(F)cc3c2)CC1` [Example 60, 7-(Difluoromethoxy)-6-fluoro-N-(trans-4-(2-hydroxy-2-methylpropoxy)cyclohexyl)quinoline-3-carboxamide] was run?
**A.** 10 to 79.4 nM

**Q.** With `C[C@@H](N[C@H]1CC[C@H](NC(=O)c2cnc3cc(OC(F)F)c(F)cc3c2)CC1)C(F)(F)F` [Example 62, 7-(Difluoromethoxy)-6-fluoro-N-(trans-4-(((R)-1,1,1-trifluoropropan-2-yl)amino)cyclohexyl)quinoline-3-carboxamide] as the molecule, how does the IC50 read?
**A.** 10 to 79.4 nM

**Q.** How did the IC50 turn out when `C[C@H](N[C@H]1CC[C@H](NC(=O)c2cnc3cc(OC(F)F)c(F)cc3c2)CC1)C(F)(F)F` [Example 63, 7-(Difluoromethoxy)-6-fluoro-N-(trans-4-(((S)-1,1,1-trifluoropropan-2-yl)amino)cyclohexyl)quinoline-3-carboxamide] was run?
**A.** < 10 nM

**Q.** For `O=C(N[C@@H]1CC[C@@H](NCC(F)(F)F)C1)c1cnc2cc(OC(F)F)c(F)cc2c1` [Example 64, 7-(difluoromethoxy)-6-fluoro-N-((1R,3R)-3-((2,2,2-trifluoroethyl)amino)cyclopentyl)quinoline-3-carboxamide], which IC50 is on record?
**A.** 10 to 79.4 nM

**Q.** For `O=C(NC1CCN(CC(F)F)CC1)c1cnc2cc(OC(F)F)c(F)cc2c1` [Example 65, N-(1-(2,2-Difluoroethyl)piperidin-4-yl)-7-(difluoromethoxy)-6-fluoroquinoline-3-carboxamide], which IC50 is on record?
**A.** 10 to 79.4 nM

**Q.** `CC(C)(N[C@H]1CC[C@H](NC(=O)c2cnc3cc(OC(F)F)c(F)cc3c2)CC1)C(F)(F)F` [Example 66, 7-(Difluoromethoxy)-6-fluoro-N-(trans-4-((1,1-trifluoro-2-methylpropan-2-yl)amino)cyclohexyl)quinoline-3-carboxamide] was tested. Which IC50 did it give?
**A.** < 10 nM

**Q.** With `CC(N[C@H]1CC[C@H](NC(=O)c2cnc3cc(OC(F)F)c(F)cc3c2)CC1)C(F)F` (stereo partly drawn) [Example 67, 7-(Difluoromethoxy)-N-(trans-4-((1,1-difluoropropan-2-yl)amino)cyclohexyl)-6-fluoroquinoline-3-carboxamide] as the molecule, how does the IC50 read?
**A.** 10 to 79.4 nM

**Q.** How did the IC50 turn out when `O=C(NC1CCC(N2CCOCC2)CC1)c1cnc2cc(OC(F)F)c(F)cc2c1` (stereo not shown) [Example 68, 7-(Difluoromethoxy)-6-fluoro-N-(4-morpholinocyclohexyl)quinoline-3-carboxamide trifluoroacetic Acid Salt] was run?
**A.** 10 to 79.4 nM

**Q.** `C[C@@H](N[C@H]1CC[C@H](NC(=O)c2cnc3cc(OC(F)F)c(F)cc3c2)CC1)C(F)F` [Example 69, 7-(Difluoromethoxy)-N-(trans-4-(((R)-1,1-difluoropropan-2-yl)amino)cyclohexyl)-6-fluoroquinoline-3-carboxamide] was tested. Which IC50 did it give?
**A.** 10 to 79.4 nM

**Q.** With `C[C@H](N[C@H]1CC[C@H](NC(=O)c2cnc3cc(OC(F)F)c(F)cc3c2)CC1)C(F)F` [Example 70, 7-(Difluoromethoxy)-N-(trans-4-(((S)-1,1-difluoropropan-2-yl)amino)cyclohexyl)-6-fluoroquinoline-3-carboxamide] as the molecule, how does the IC50 read?
**A.** < 10 nM

**Q.** How did the IC50 turn out when `O=C(N[C@H]1CC[C@H](N2CC(F)(F)C2)CC1)c1cnc2cc(OC(F)F)c(F)cc2c1` [Example 71, N-(trans-4-(3,3-Difluoroazetidin-1-yl)cyclohexyl)-7-(difluoromethoxy)-6-fluoroquinoline-3-carboxamide] was run?
**A.** 10 to 79.4 nM

**Q.** `CCOC(=O)c1cnc(N2CCC(NC(=O)c3cnc4cc(OC(F)F)c(F)cc4c3)CC2)o1` [Example 72, Ethyl 2-(4-(7-(difluoromethoxy)-6-fluoroquinoline-3-carboxamido)piperidin-1-yl)oxazole-5-carboxylate] was tested. Which IC50 did it give?
**A.** 10 to 79.4 nM

**Q.** `C[C@H](N[C@H]1C[C@H](NC(=O)c2cnc3cc(OC(F)F)c(F)cc3c2)C1)C(F)F` [Example 73, 7-(Difluoromethoxy)-N-(trans-3-(((S)-1,1-difluoropropan-2-yl)amino)cyclobutyl)-6-fluoroquinoline-3-carboxamide] was tested. Which IC50 did it give?
**A.** 10 to 79.4 nM

**Q.** `C[C@@H](N[C@H]1C[C@H](NC(=O)c2cnc3cc(OC(F)F)c(F)cc3c2)C1)C(F)F` [Example 74, 7-(Difluoromethoxy)-N-(trans-3-(((R)-1,1-difluoropropan-2-yl)amino)cyclobutyl)-6-fluoroquinoline-3-carboxamide] was tested. Which IC50 did it give?
**A.** 10 to 79.4 nM

**Q.** Which IC50 does the source give for `CC(O)(CO[C@H]1CC[C@H](NC(=O)c2cnc3cc(OC(F)F)c(F)cc3c2)CC1)C(F)(F)F` (stereo partly drawn) [Example 76, 7-(Difluoromethoxy)-6-fluoro-N-(trans-4-(3,3,3-trifluoro-2-hydroxy-2-methylpropoxy)cyclohexyl)quinoline-3-carboxamide] here?
**A.** 10 to 79.4 nM

Same assay, conditions: in at least one experimental run; read-out: H-PGDS pIC50 value (converted)

**Q.** `O=C(N[C@H]1C[C@H](NCC(F)(F)F)C1)c1cnc2cc(OC(F)F)c(F)cc2c1` [Example 59, 7-(Difluoromethoxy)-6-fluoro-N-(trans-3-((2,2,2-trifluoroethyl)amino)cyclobutyl)quinoline-3-carboxamide] was tested. Which IC50 did it give?
**A.** 50.1 nM
